Source: patent US10888518B2, “Orodispersible tablet containing estetrol” (ESTETRA SPRL, priority 2015, dated 2021)

Columns and labels:
production of SHBG = conditions: in vitro; cited from earlier work
[1] = target: T1, sex hormone binding globulin (SHBG) (Homo sapiens, UniProt P04278); conditions: in vitro; cited from earlier work
T1 sequence (P04278 30-402): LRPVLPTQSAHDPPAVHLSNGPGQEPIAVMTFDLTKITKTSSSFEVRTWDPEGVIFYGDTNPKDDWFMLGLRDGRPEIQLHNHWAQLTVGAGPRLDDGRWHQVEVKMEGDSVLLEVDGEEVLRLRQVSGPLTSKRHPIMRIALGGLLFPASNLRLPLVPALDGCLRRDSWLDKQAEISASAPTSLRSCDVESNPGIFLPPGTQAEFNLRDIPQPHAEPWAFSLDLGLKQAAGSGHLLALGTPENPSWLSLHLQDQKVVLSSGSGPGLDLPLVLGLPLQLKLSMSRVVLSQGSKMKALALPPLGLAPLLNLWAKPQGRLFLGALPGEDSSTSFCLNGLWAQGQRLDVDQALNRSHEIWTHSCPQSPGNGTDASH

[2] = humans, cited from earlier work
[3] = system: vagina, uterus, body weight, bone mass, bone strength, hot flushes, ovulation; conditions: rat models; dose-dependent; cited from earlier work
[4] = Randomized, open-label, two-period, cross-over pharmacokinetic study, sublingual versus oral estetrol; type: in vivo, human; conditions: 10 mg estetrol, healthy female volunteers
Protocol: A randomized, open-label, two-period, cross-over, pharmacokinetic study is conducted to compare sublingual bioavailability of 10 mg estetrol administered in one 80 mg tablet with oral availability of estetrol contained in a 83 mg tablet containing 10 mg estetrol. These tablets are administered sublingually and orally to healthy female volunteers under fasting conditions.
Ten healthy female subjects are selected on the basis of the following criteria: age of 45-65 years (inclusive), nonsmokers or past smokers (at least 6 months before dosing), body-mass index (BMI)=18.5 to 30 kg/m^2 (inclusive at the time of the screening).
At the start of the first and the second period of the study, between 07:00 am and 07:28 am, 5 subjects receive a single dose of the sublingual formulation of estetrol by administering one estetrol tablet (tablet weight 80 mg; 10 mg estetrol) and 5 subjects receive a single oral dose of the oral estetrol formulation by administering one estetrol tablet (tablet weight 83 mg; 10 mg estetrol), ingested together with 200 ml water. […]
The estetrol concentration in the collected blood samples is determined by means of HPLC/MS/MS. The concentrations of glucuronided estetrol (D-ring) in the urine samples is also determined with the help of HPLC/MS/MS.

[5] = system: human breast cancer cells; conditions: in vitro; cited from earlier work
estrogen receptors = conditions: in vitro; cited from earlier work
DMBA mammary tumour = DMBA mammary tumour model; extent and dose level similar to tamoxifen and ovariectomy; cited from earlier work

Compound: C[C@]12CC[C@@H]3c4ccc(O)cc4CC[C@H]3[C@@H]1[C@@H](O)[C@@H](O)[C@@H]2O [estetrol, 1,3,5 (10)-estratrien-3,15α,16α,17β-tetrol]
- Stimulation of the production of SHBG (production of SHBG): does not stimulate the production of SHBG
- Binding to SHBG [1]: does not bind
- Oral bioavailability ([2]; oral): high and dose-proportional
- Terminal elimination half-life [2]: about 28 hours
- Estrogenic effects on vagina, uterus, body weight, bone mass, bone strength, hot flushes and ovulation [3]: exhibited estrogenic effects
- Bioavailability of sublingually administered estetrol versus orally administered estetrol ([4]; 80 mg sublingual tablet vs 83 mg oral tablet, fasting): comparable or even superior to orally administered estetrol
- Impact on a liver function parameter, sublingual versus oral ([4]; sublingual): less impact on a liver function parameter
- Effect in the presence of 17β-estradiol [5]: anti-estrogenic effect
- Binding selectivity for estrogen receptors (estrogen receptors): binds highly selective to the estrogen receptors with preference for the ERα form of the receptor
- Tumour development (DMBA mammary tumour): prevented tumour development
